From patent US4219550A, “Cis- and trans- octahydropyridopyrrolobenzheterocycles” (E. I. Du Pont de Nemours and Company, priority 1978, dated 1980)
Structures can show the parent of a compound that is named as a salt. Where two headings read alike, the source gives them in different places.

Tests used:
[1] = test system: tetrabenazine-induced sedation and depression; assay: Mouse tetrabenazine (TBZ) antagonism (ptosis and exploratory activity); type: in vivo, Carworth CF1 S female mice
Procedure: This mouse test is predictive of human antidepressant response (Everett, "The Dopa Response Potentiation Test and Its Use in Screening for Antidepressant Drugs", pp 164 in "Antidepressant Drugs" [Proceedings of the First International Symposium], S. Garattini and M. N. G. Dukes, eds., 1967).
Groups of 10 Carworth CF1 S female mice, 18-21 g each, were fasted 1.5 hours and were intubated with antagonist compounds at oral doses of 0, 0.33, 1, 3, 9, 27 and 81 mg/kg in 0.20 ml of 1% Methocel®. The mice were challenged 30 minutes later with tetrabenazine (as the methane-sulfonate), 32 mg/kg intraperitoneally (dissolved in 0.20 ml 0.05 M KCl at pH 2.0). One hour after antagonist (30 minutes after tetrabenazine), the mice were examined for signs of exploratory activity and ptosis (eyelid closure). Normal exploratory activity (relief from sedation) was recorded when a mouse lifted by the tail from a group of 10 in a testing box and placed on a stainless steel testing box lid (12.5"×8" with 0.33" mesh) either turned its head horizontally 30° in both directions or moved to the edge of the screen within 10 seconds after being placed on the screen. Relief from ptosis was recorded when exactly two seconds after placing the mouse facing the observer, lid closure was less than 50% in both eyes.

[2] = test system: conditioned avoidance response; assay: Rat conditioned avoidance response (CAR); type: in vivo, male Holtzman rats
Procedure: The tranquilizing activity of the compounds of this invention is evidenced by tests conducted in male white rats in which a conditioned avoidance response is interrupted following an oral dose of the drug. This test is predictive of human response to an antipsychotic (tranquilizing) drug. The method of Clark was used (Clark, R., Psychon. Sci. 6, 11, 1966).
The test animals, male Holtzman rats between 90 and 115 grams, were food deprived 18 hours prior to avoidance training. Test drugs were suspended in 0.5% Methocel.
The equipment consisted of a plexiglas pit 5"×5"×9" fitted with a metal floor grid which can be electrified via the output of a shock generator. The top end of the pit opened into a surrounding platform 12"×3-1/2" on all four sides. This pit fitted into a larger plexiglas housing which served both to support the pit and to distribute wires to (a) the electrified floor grid, (b) a sound speaker used for stimulus presentation and (c) a 40 watt incandescent bulb also used for stimulus presentation. The main housing was separate from but attached to a metal frame which supported a noise generator, shock generator, and timing/sequence device. The noise generator was a Grason-Stadler Model 1724, used in the 50 KHz bandwidth with output of -10DB. The two-line shock generator supplied a constant A/C current of 0.19 milliamperes, via constantly scrambled 10 HZ square wave output.
The rats were trained by giving each of them four successive trials 15 to 20 minutes apart with a conditioned stimulus (CS) of a 40-watt incandescent bulb and a white noise plus an unconditioned stimulus (US) of a 0.19 milliampere scrambled shock. Following the four CS+US trials each animal was given an avoidance learning criterion trial in which the CS was presented alone 10 seconds prior to the US.
Rats were dosed orally with compound of the invention or standard drug, 20 rats/dose. Each rat was tested at 60, 120 and 240 minutes after drug.

[3] = test system: tetrabenazine-induced sedation and depression; assay: Mouse tetrabenazine (TBZ) antagonism (ptosis and exploratory activity); type: in vivo, Carworth CF1 S female mice; settings: 30 mg/kg, footnote mark stands under PTOSIS
[4] = po, 1 h, read-out: ED50 TBZ ANTAG. EXPLOR.
[5] = po, 1 h, read-out: ED50 TBZ ANTAG. PTOSIS

Structure (SMILES)	ED50 [1, 4] [mg/kg]	ED50 [1, 5] [mg/kg]	ED50 ([2]; po, read-out: ED50 CAR AVOID.) [mg/kg]	ED50 ([2]; po, read-out: ED50 CAR ESCAPE) [mg/kg]	TBZ ANTAG. activity, subcutaneous (footnote *) [3]	ED50 ([1]; oral antagonist, tetrabenazine 32 mg/kg i.p. 30 min later, examined 1 h after antagonist, exploratory activity (relief from sedation), read-out: ED50 TBZ ANTAG. EXPLOR.) [mg/kg]	ED50 ([1]; oral antagonist, tetrabenazine 32 mg/kg i.p. 30 min later, examined 1 h after antagonist, relief from ptosis, read-out: ED50 TBZ ANTAG. PTOSIS) [mg/kg]	ED50 ([2]; oral, 20 rats/dose, tested at 60, 120 and 240 min, avoidance, read-out: ED50 CAR AVOID.) [mg/kg]
CCCCN1CC[C@H]2[C@@H](C1)c1cccc3c1N2CCS3 (relative stereo) [CH2, S, n-C4H9, H, cis]	14	11	5.5					
c1cc2c3c(c1)[C@@H]1CNCC[C@@H]1N3CCO2 (relative stereo) [Example 1, (+)-cis-1,2,6b,7,8,9,10,10a-Octahydropyrido[3', 4': 4,5]pyrrolo[1,2,3,-de][1,4]benzoxazine]	23	1.4	2.2	> 25				
Clc1ccc2c3c1[C@@H]1CNCC[C@@H]1N3CCO2 (relative stereo) [Example 2]	27	4.3	~23	> 50				
c1cc2c3c(c1)[C@@H]1CN(C4CC4)CC[C@@H]1N3CCO2 (relative stereo) [Example 3]	24	21	28					
c1cc2c3c(c1)[C@@H]1CNCC[C@@H]1N3CCCO2 (relative stereo) [Example 4]	47	1.6	2.2	14				
c1cc2c3c(c1)[C@@H]1CNCC[C@@H]1N3CCS2 (relative stereo) [Example 5]	0.4	3.3	1.1					
CN1CC[C@H]2[C@@H](C1)c1cccc3c1N2CCS3 (relative stereo) [Example 6]	> 81	7.2	17					
c1cc2c3c(c1)[C@@H]1CN(C4CC4)CC[C@@H]1N3CCS2 (relative stereo) [Example 7]	3.3	1.1						
c1cc2c3c(c1)[C@@H]1CNCC[C@@H]1N3CCCS2 (relative stereo) [Example 8]					active subcutaneously at 30 mg/kg			
c1cc2c3c(c1)[C@@H]1CNCC[C@@H]1N3CCCS2 (relative stereo) [Example 8a]	54	6.6	2.2					
c1cc2c3c(c1)[C@@H]1CN(C4CC4)CC[C@@H]1N3CCCS2 (relative stereo) [Example 9]	68	68						
CC(C)N1CC[C@H]2[C@@H](C1)c1cccc3c1N2CCS3 (relative stereo) [Example 11]	14	11	5.5					
c1cc2c3c(c1)[C@H]1CN(C4CC4)CC[C@@H]1N3CCO2 (relative stereo) [Example 17]	11.2	7.5						
CN1CC[C@H]2[C@H](C1)c1cccc3c1N2CCS3 (relative stereo) [Example 18]	6.5	6.5	28					
CN(C)CCC=C1c2ccccc2CCc2ccccc21 [Amitriptyline · HCl, Amitriptyline, reference compound]						4.3	1.6	116
CN(C)CCCN1c2ccccc2Sc2ccc(Cl)cc21 [Chlorpromazine · HCl, Chlorpromazine, reference compound]	> 81	> 81	5.4	~34				
CC1CN2c3c(cccc3[C@@H]3CNCC[C@@H]32)S1 (stereo partly drawn) [Example 10]	27	23	8.5	~38				
CCN1CC[C@@H]2[C@@H](C1)c1cccc3c1N2CCS3 [Example 16, (+)-trans-8-Ethyl-1,2,6b, 7,8,9,10,10a-octahydropyrido[3',4':4,5]pyrrolo[1,2,3-de][1,4]benzothiazine]	10.8	7.5	6.2					
